# Data: patent US8840866B2, “Styrylpyridine derivatives and their use for binding and imaging amyloid plaques” (The Trustees of the University of Pennsylvania, priority 2006, dated 2014)
# Experiments:
# [1] = target: fibrillar Aβ aggregates (Homo sapiens, UniProt P05067); conditions: Mathis et al. 1997; read-out: inhibition constants (Ki) for binding to fibrillar Aβ aggregates; cited from earlier work
# [2] = system: Aβ plaques; test: Film autoradiography of postmortem AD brain sections; assay type: binding, human
# Experimental: [^18F]tracers: Brain sections from AD subjects were obtained by freezing the brain in powdered dry ice and cut into 20 micrometer-thick sections. The sections were incubated with [^18F]tracers (200,000-250,000 cpm/200 μl) for 1 hr at room temperature. The sections were then dipped in saturated Li2CO3 in 40% EtOH (two two-minute washes) and washed with 40% EtOH (one two-minute wash) followed by rinsing with water for 30 sec. After drying, the ^18F-labeled sections were exposed to Kodak MR film overnight.
# [3] = target: amyloid plaques in AD brain homogenates (Homo sapiens, UniProt P05067); conditions: displacement of 125I-IMPY binding
# Experimental: Values represent potencies (Ki) of compounds for displacement of ^125I-IMPY binding to amyloid plaques in AD brain homogenates.
# Competition binding assays were carried out in 12×75 mm borosilicate glass tubes. The reaction mixture contained 50 μl of pooled AD brain homogenates (20-50 μg), 50 μl of [^125I]IMPY (0.04-0.06 nM diluted in PBS) and 50 μl of inhibitors (10^−5-10^10 M diluted serially in PBS containing 0.1% bovine serum albumin) in a final volume of 1 ml. Nonspecific binding was defined in the presence of 600 nM IMPY in the same assay tubes. The mixture was incubated at 37° C. for 2 h and the bound and the free radioactivity were separated by vacuum filtration through Whatman GF/B filters using a Brandel M-24R cell harvester followed by 2×3 ml washes of PBS at room temperature. Filters containing the bound 1-125 ligand were counted in a gamma counter (Packard 5000) with 70% counting efficiency. Under the assay conditions, the specifically bound fraction was less than 15% of the total radioactivity. The results of inhibition experiments were subjected to nonlinear regression analysis using equilibrium binding data analysis from which Ki values were calculated.
# [4] = system: pooled AD and control brain tissue homogenates; test: Specific binding of [18F]2 to pooled AD and control brain tissue homogenates; set-up: species or system human
# Text: FIG. 8 depicts specific binding of [^18F]2 to pooled AD and control brain tissue homogenates. Gray and white matters were dissected from the cortical regions. […] The values presented are the mean±SEM of six measurements.
# [5] = Organ distribution in normal ICR mice after iv injection of radiolabeled tracer; assay type: in vivo; conditions: 5% EtOH in saline
# Experimental: The mice (n=3 for each time point) were sacrificed by cervical dislocation at designated time-points post injection. The organs of interest were removed and weighed, and the radioactivity was counted with an automatic gamma counter. The percentage dose per organ was calculated by a comparison of the tissue counts to suitably diluted aliquots of the injected material. The total activity of the blood was calculated under the assumption that it is 7% of the total body weight. The % dose/g of samples was calculated by comparing the sample counts with the count of the diluted initial dose.
# [6] = 2 min, second organ list r16-r25
# [7] = 30 min, first organ list r6-r15
# [8] = 30 min, second organ list r16-r25
# [9] = 1 hr, second organ list r16-r25
# [10] = 2 hr, second organ list r16-r25
# Chain of fibrillar Aβ aggregates (P05067 672-711 limits assumed): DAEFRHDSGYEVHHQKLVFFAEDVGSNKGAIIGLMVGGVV
# Chain of amyloid plaques in AD brain homogenates (P05067 672-711): as the sequence (P05067 672-711 limits assumed) above
smiles,measurement,setting,value
"O=C(O)c1cc(/N=N/c2ccc(-c3ccc(/N=N/c4ccc(O)c(C(=O)O)c4)cc3)cc2)ccc1O [CG, chrysamine-G]",Ki,[1],370 nM
"CN(C)c1ccc(/C=C/c2ccc(OCCOCCOCCF)nc2)cc1 [Compound 2, (E)-2-(2-(2-(2-fluoroethoxy)ethoxy)ethoxy)-5-(4-dimethylaminostyryl)pyridine]",autoradiography result,[2],confirmed the specific binding related to the presence of Aβ plaques
same,Ki,[3],2.5 ± 0.4 nM
"CN(C)c1ccc(/C=C/c2ccc(OCCOCCOCCF)nc2)cc1 [[^18F]2, (E)-2-(2-(2-(2-fluoroethoxy)ethoxy)ethoxy)-5-(4-dimethylaminostyryl)pyridine]",specific binding,"[4]; AD brain homogenates, gray matter",High specific binding
same,specific binding,"[4]; AD brain, white matter homogenates",Relatively low binding
same,specific binding,"[4]; control brain homogenates, grey or white matter",significantly lower specific binding
same,Biodistribution: Blood,"[5]; 2 min, first organ list r6-r15",6.05 ± 0.33 % dose/g
same,Biodistribution: Bone,"[5]; 2 min, first organ list r6-r15",5.97 ± 0.56 % dose/g
same,Biodistribution: Brain,"[5]; 2 min, first organ list r6-r15",3.49 ± 0.58 % dose/g
same,Biodistribution: Heart,"[5]; 2 min, first organ list r6-r15",0.75 ± 0.14 % dose/g
same,Biodistribution: Kidney,"[5]; 2 min, first organ list r6-r15",6.38 ± 0.95 % dose/g
same,Biodistribution: Liver,"[5]; 2 min, first organ list r6-r15",24.90 ± 1.49 % dose/g
same,Biodistribution: Lung,"[5]; 2 min, first organ list r6-r15",1.07 ± 0.20 % dose/g
same,Biodistribution: Muscle,"[5]; 2 min, first organ list r6-r15",7.03 ± 1.30 % dose/g
same,Biodistribution: Skin,"[5]; 2 min, first organ list r6-r15",2.52 ± 0.24 % dose/g
same,Biodistribution: Spleen,"[5]; 2 min, first organ list r6-r15",0.43 ± 0.11 % dose/g
same,Biodistribution: Blood,[5]; [6],3.04 ± 0.29 % dose/g
same,Biodistribution: Bone,[5]; [6],1.49 ± 0.08 % dose/g
same,Biodistribution: Brain,[5]; [6],7.77 ± 1.34 % dose/g
same,Biodistribution: Kidney,[5]; [6],14.19 ± 2.34 % dose/g
same,Biodistribution: Liver,[5]; [6],17.00 ± 0.69 % dose/g
same,Biodistribution: Lung,[5]; [6],5.65 ± 0.89 % dose/g
same,Biodistribution: Muscle,[5]; [6],0.62 ± 0.10 % dose/g
same,Biodistribution: Skin,[5]; [6],0.59 ± 0.03 % dose/g
same,Biodistribution: Spleen,[5]; [6],4.65 ± 0.76 % dose/g
same,Biodistribution: Blood,[5]; [7],2.65 ± 0.22 % dose/g
same,Biodistribution: Bone,[5]; [7],2.52 ± 0.34 % dose/g
same,Biodistribution: Brain,[5]; [7],0.48 ± 0.07 % dose/g
same,Biodistribution: Heart,[5]; [7],0.17 ± 0.03 % dose/g
same,Biodistribution: Kidney,[5]; [7],1.68 ± 0.11 % dose/g
same,Biodistribution: Liver,[5]; [7],9.26 ± 0.83 % dose/g
same,Biodistribution: Lung,[5]; [7],0.30 ± 0.01 % dose/g
same,Biodistribution: Muscle,[5]; [7],8.58 ± 0.26 % dose/g
same,Biodistribution: Skin,[5]; [7],3.99 ± 0.34 % dose/g
same,Biodistribution: Spleen,[5]; [7],0.15 ± 0.05 % dose/g
same,Biodistribution: Blood,[5]; [8],1.33 ± 0.16 % dose/g
same,Biodistribution: Bone,[5]; [8],0.63 ± 0.12 % dose/g
same,Biodistribution: Brain,[5]; [8],1.03 ± 0.11 % dose/g
same,Biodistribution: Heart,[5]; [8],1.28 ± 0.16 % dose/g
same,Biodistribution: Kidney,[5]; [8],3.77 ± 0.36 % dose/g
same,Biodistribution: Liver,[5]; [8],7.21 ± 0.69 % dose/g
same,Biodistribution: Lung,[5]; [8],1.73 ± 0.17 % dose/g
same,Biodistribution: Muscle,[5]; [8],0.75 ± 0.04 % dose/g
same,Biodistribution: Skin,[5]; [8],0.93 ± 0.13 % dose/g
same,Biodistribution: Spleen,[5]; [8],1.57 ± 0.51 % dose/g
same,Biodistribution: Blood,"[5]; 1 hr, first organ list r6-r15",3.48 ± 0.47 % dose/g
same,Biodistribution: Bone,"[5]; 1 hr, first organ list r6-r15",4.39 ± 0.40 % dose/g
same,Biodistribution: Brain,"[5]; 1 hr, first organ list r6-r15",0.55 ± 0.10 % dose/g
same,Biodistribution: Heart,"[5]; 1 hr, first organ list r6-r15",0.22 ± 0.03 % dose/g
same,Biodistribution: Kidney,"[5]; 1 hr, first organ list r6-r15",1.96 ± 0.21 % dose/g
same,Biodistribution: Liver,"[5]; 1 hr, first organ list r6-r15",10.52 ± 2.18 % dose/g
same,Biodistribution: Lung,"[5]; 1 hr, first organ list r6-r15",0.35 ± 0.07 % dose/g
same,Biodistribution: Muscle,"[5]; 1 hr, first organ list r6-r15",10.62 ± 2.59 % dose/g
same,Biodistribution: Skin,"[5]; 1 hr, first organ list r6-r15",4.42 ± 0.65 % dose/g
same,Biodistribution: Spleen,"[5]; 1 hr, first organ list r6-r15",0.13 ± 0.03 % dose/g
same,Biodistribution: Blood,[5]; [9],1.80 ± 0.16 % dose/g
same,Biodistribution: Bone,[5]; [9],1.13 ± 0.01 % dose/g
same,Biodistribution: Brain,[5]; [9],1.28 ± 0.20 % dose/g
same,Biodistribution: Heart,[5]; [9],1.66 ± 0.24 % dose/g
same,Biodistribution: Kidney,[5]; [9],4.29 ± 0.52 % dose/g
same,Biodistribution: Liver,[5]; [9],8.13 ± 1.42 % dose/g
same,Biodistribution: Lung,[5]; [9],1.82 ± 0.31 % dose/g
same,Biodistribution: Muscle,[5]; [9],0.95 ± 0.18 % dose/g
same,Biodistribution: Skin,[5]; [9],1.06 ± 0.09 % dose/g
same,Biodistribution: Spleen,[5]; [9],1.56 ± 0.17 % dose/g
same,Biodistribution: Blood,"[5]; 2 hr, first organ list r6-r15",2.15 ± 0.25 % dose/g
same,Biodistribution: Bone,"[5]; 2 hr, first organ list r6-r15",6.49 ± 0.08 % dose/g
same,Biodistribution: Brain,"[5]; 2 hr, first organ list r6-r15",0.37 ± 0.08 % dose/g
same,Biodistribution: Heart,"[5]; 2 hr, first organ list r6-r15",0.18 ± 0.08 % dose/g
same,Biodistribution: Kidney,"[5]; 2 hr, first organ list r6-r15",0.96 ± 1.58 % dose/g
same,Biodistribution: Liver,"[5]; 2 hr, first organ list r6-r15",6.86 ± 0.59 % dose/g
same,Biodistribution: Lung,"[5]; 2 hr, first organ list r6-r15",0.20 ± 0.36 % dose/g
same,Biodistribution: Muscle,"[5]; 2 hr, first organ list r6-r15",5.96 ± 0.06 % dose/g
same,Biodistribution: Skin,"[5]; 2 hr, first organ list r6-r15",2.91 ± 0.16 % dose/g
same,Biodistribution: Spleen,"[5]; 2 hr, first organ list r6-r15",0.10 ± 0.17 % dose/g
same,Biodistribution: Blood,[5]; [10],1.08 ± 0.06 % dose/g
same,Biodistribution: Bone,[5]; [10],1.64 ± 0.50 % dose/g
same,Biodistribution: Brain,[5]; [10],0.84 ± 0.08 % dose/g
same,Biodistribution: Heart,[5]; [10],1.32 ± 0.33 % dose/g
same,Biodistribution: Kidney,[5]; [10],2.19 ± 0.36 % dose/g
same,Biodistribution: Liver,[5]; [10],4.96 ± 0.90 % dose/g
same,Biodistribution: Lung,[5]; [10],0.98 ± 0.08 % dose/g
same,Biodistribution: Muscle,[5]; [10],0.52 ± 0.08 % dose/g
same,Biodistribution: Skin,[5]; [10],0.68 ± 0.16 % dose/g
same,Biodistribution: Spleen,[5]; [10],1.14 ± 0.18 % dose/g
